We go through 51 compounds from patent US20260373138A1, “COMPOUNDS WITH ANTIFUNGAL PROPERTIES” (priority 2023, published 2026).

Bounds are passed on as bounds.

The assay relates to A. fumigatus CEA10 reference strain. The assay can be described thus: Fluconazole potentiator screen: MIC by CLSI microbroth dilution with and without fluconazole. The assay is classed as cell-based, Aspergillus fumigatus. The conditions noted are these: for MIC: Aspergillus fumigatus, read-out: MIC (ug/mL) (−) Fluc; for MIC / MIC (ug/mL) (+) Fluc: 18 h; for potency / potentiation of fluconazole (in words): structure-activity statements, fluconazole potentiator screen; for MIC (ug/mL) (+) Fluc: with 32 μg/ml fluconazole, normoxia, GMM, 37 °C. On the technique in general: Dilution methods test growth across graded concentrations, often in twofold steps.

Regarding `O=C(c1ccsc1)N1CCC(Cc2ccc(COc3ccnc(O)c3)cc2)CC1` [MBX-8185], the MIC is > 20 µg/mL, the “potency / potentiation of fluconazole (in words)” value (“potency / potentiation” for short) is listed as “complete loss of activity” and the “MIC (ug/mL) (+) Fluc” value was >20 µg/mL.
For the compound `O=S(=O)(c1ccc(F)cc1)N1CCC(Cc2ccc(COc3ccncc3)cc2)C1` (centres unmarked) [MBX-8391], the MIC turned out to be 1 µg/mL and the “MIC (ug/mL) (+) Fluc” value was 0.20 µg/mL.
Consider `c1cc(OCc2ccc(CC3CCN(Cc4ccsc4)CC3)cc2)ccn1` [MBX-7806], for which the MIC is > 15 µg/mL and the “MIC (ug/mL) (+) Fluc” value was >15 µg/mL.
On the same counts, the results for `Cc1ccc(S(=O)(=O)N2CCC3(CC2)CC(CCOc2ccncc2)CCO3)s1` (centres unmarked) [MBX-8144] are 0.77 µg/mL and 0.21 µg/mL.
As for `O=C(c1ccoc1)N1CCC(Cc2ccc(COc3ccncc3)cc2)CC1` [MBX-7732], the MIC amounted to 5.32 µg/mL and the “MIC (ug/mL) (+) Fluc” value turned out to be 1.88 µg/mL. The “loss in potency compared to MBX-7591” value (relative to MBX-7591) stood at 4 fold.
Regarding `O=C(c1ccc(C(F)(F)F)nc1)N1CCC(Cc2ccc(COc3ccncc3)cc2)CC1` [MBX-8089], the MIC is > 22 µg/mL, the “potency / potentiation” value is listed as “did not result in appreciable increase in potency” and the “MIC (ug/mL) (+) Fluc” value was >20 µg/mL.
For `O=S(=O)(c1cccc(F)c1)N1CCC(C(O)c2ccc(CN3CCOCC3)cc2)CC1` (centres unmarked) [MBX-8355], the MIC is > 22 µg/mL and the “MIC (ug/mL) (+) Fluc” value was >22 µg/mL.
For the compound `O=C(c1ccsc1)N1CCC(Cc2ccc(CN3CCOCC3)cc2)C1` (centres unmarked) [MBX-8429], the MIC was found to be 18.5 µg/mL and the “MIC (ug/mL) (+) Fluc” value was 18.53 µg/mL.
Take `O=C(c1ccccc1)N1CCC(Cc2ccc(COc3ccncc3)cc2)CC1` [MBX-7704]: the MIC was > 15 µg/mL and the “MIC (ug/mL) (+) Fluc” value is >15 µg/mL.
With `O=S(=O)(c1ccc(C(F)(F)F)nc1)N1CCC(Cc2ccc(COc3ccncc3)cc2)C1` (centres unmarked) [MBX-8393], the MIC is > 47 µg/mL and the “MIC (ug/mL) (+) Fluc” value was >47 µg/mL.
Consider `O=C(c1ccsc1)N1CCC(Oc2ccc(COc3ccncc3)cc2)CC1` [MBX-8309], for which the MIC was found to be 19 µg/mL and the “MIC (ug/mL) (+) Fluc” value amounted to 19.00 µg/mL.
On to `CC(c1ccsc1)N1CCC(Cc2ccc(COc3ccncc3)cc2)CC1` (centres unmarked) [MBX-7821], for which the MIC is > 15 µg/mL and the “MIC (ug/mL) (+) Fluc” value is >15 µg/mL.
For `CC1CN(Cc2ccc(CC3CCN(S(=O)(=O)c4cccc(F)c4)CC3)cc2)CC(C)O1` (centres unmarked) [MBX-8190], the MIC was > 23 µg/mL, the “potency / potentiation” value is “not tolerated” and the “MIC (ug/mL) (+) Fluc” value is >23 µg/mL.
As to `O=C(c1ccsc1)N1CC[C@H](Cc2ccc(COc3ccncc3)cc2)C1` [MBX-8432], the MIC worked out at 4.16 µg/mL and the “MIC (ug/mL) (+) Fluc” value stood at 1.51 µg/mL.
`O=C(c1ccsc1)N1CCN(Cc2ccc(-c3ccncc3)cc2)CC1` [MBX-8702]: the MIC stood at 1.14 µg/mL and the “MIC (ug/mL) (+) Fluc” value is 0.32 µg/mL.
On the same counts, the results for `O=S(=O)(c1ccsc1)N1CCc2cc(COc3ccncc3)ccc2C1` [MBX-8307] are 4.8 µg/mL and 2.40 µg/mL.
For the compound `Cc1cc(OCc2ccc(CC3CCN(C(=O)c4ccsc4)CC3)cc2)ccn1` [MBX-8141], the MIC was > 20 µg/mL, the “potency / potentiation” value is “complete loss of activity” and the “MIC (ug/mL) (+) Fluc” value is >20 µg/mL.
With `O=S(=O)(c1ccc(Cl)s1)N1CCC2(CC1)CC(CCOc1ccncc1)CCO2` (centres unmarked) [MBX-7912], the MIC was 0.36 µg/mL, the “potency / potentiation” value is recorded as “the most potent” and the “MIC (ug/mL) (+) Fluc” value is 0.18 µg/mL.
`O=S(=O)(c1ccc(C(F)(F)F)nc1)N1CCC(Cc2ccc(CN3CCOCC3)cc2)CC1` [MBX-8186]: the MIC was 4.8 µg/mL, the “potency / potentiation” value was “maintain activity in the morpholine series” and the “MIC (ug/mL) (+) Fluc” value stood at 1.90 µg/mL.
Regarding `NCc1ccc(OCc2ccc(CC3CCN(C(=O)c4ccsc4)CC3)cc2)cc1` [MBX-8220], the MIC was > 21 µg/mL and the “MIC (ug/mL) (+) Fluc” value is >21 µg/mL.
In the case of `O=S(=O)(c1ccc(F)cc1)N1CCC(Cc2ccc(CN3CCOCC3)cc2F)CC1` [MBX-8324], the MIC came out at 1.2 µg/mL and the “MIC (ug/mL) (+) Fluc” value is 0.17 µg/mL.
For the compound `CN1CCN(Cc2ccc(CC3CCN(S(=O)(=O)c4ccc(F)cc4)CC3)cc2)CC1` [MBX-8436], the MIC came out at 4.46 µg/mL and the “MIC (ug/mL) (+) Fluc” value is 0.45 µg/mL.
Take `O=C(c1ccccn1)N1CCC(Cc2ccc(COc3ccncc3)cc2)CC1` [MBX-7729]: the MIC was determined as 15 µg/mL, the “potency / potentiation” value is “did not result in appreciable increase in potency” and the “MIC (ug/mL) (+) Fluc” value was determined as 15.00 µg/mL.
In the case of `O=S(=O)(c1cccnc1)N1CCC2(CC1)CC(CCOc1ccncc1)CCO2` (centres unmarked) [MBX-7874], the MIC was > 16 µg/mL and the “MIC (ug/mL) (+) Fluc” value was >16 µg/mL.
In the case of `O=C(c1ccncc1)N1CCC(Cc2ccc(COc3ccncc3)cc2)CC1` [MBX-7731], the MIC came to 7.7 µg/mL, the “potency / potentiation” value is “did not result in appreciable increase in potency” and the “MIC (ug/mL) (+) Fluc” value turned out to be 7.70 µg/mL.
Consider `O=S(=O)(c1ccc(F)cc1)N1CCC(Cc2ccc(CC3CCOCC3)cc2)CC1` [MBX-8347], for which the MIC was > 21 µg/mL and the “MIC (ug/mL) (+) Fluc” value was >21 µg/mL.
Consider `O=S(=O)(c1ccsc1)N1CCC2(CC1)CC(CCOc1ccncc1)CCO2` (centres unmarked) [MBX-7876], for which the MIC is > 12 µg/mL and the “MIC (ug/mL) (+) Fluc” value is 2.99 µg/mL.
On the same counts, the results for `O=S(=O)(c1cc(F)cc(F)c1)N1CCC(Cc2ccc(CN3CCOCC3)cc2)CC1` [MBX-8223] are 12.6 µg/mL and 3.50 µg/mL.
For the compound `O=C(c1ccsc1)N1CCC(Cc2ccc(C#Cc3ccncc3)cc2)CC1` [MBX-7963], the MIC was > 77 µg/mL and the “MIC (ug/mL) (+) Fluc” value is >77 µg/mL.
For `O=S(=O)(c1ccoc1)N1CCC2(CC1)CC(CCOc1ccncc1)CCO2` (centres unmarked) [MBX-7875], the MIC is > 16 µg/mL and the “MIC (ug/mL) (+) Fluc” value amounted to 8.00 µg/mL.
Turning to `O=C(c1ccsc1)N1CCc2cc(COc3ccncc3)ccc2C1` [MBX-8308], the MIC is 4.3 µg/mL and the “MIC (ug/mL) (+) Fluc” value is 1.90 µg/mL.
On the same counts, the results for `O=C(c1cccs1)N1CCC2(CC1)CC(CCOc1ccncc1)CCO2` (centres unmarked) [MBX-8394] are 19 µg/mL and 9.70 µg/mL.
Consider `O=C(c1cncs1)N1CCC(Cc2ccc(COc3ccncc3)cc2)CC1` [MBX-8098], for which the MIC came out at 5.5 µg/mL and the “MIC (ug/mL) (+) Fluc” value was determined as 2.50 µg/mL. In addition, the “loss in potentiating the fluconazole” value (analogs of MBX-7591) is listed as “more than 4 fold”.
As to `O=C(NC1CCN(Cc2ccc(COc3ccncc3)cc2)CC1)c1ccsc1` [MBX-8312], the MIC was > 20 µg/mL and the “MIC (ug/mL) (+) Fluc” value is >20 µg/mL.
Take `O=C(c1ccccc1F)N1CCC(Cc2ccc(COc3ccncc3)cc2)CC1` [MBX-7769]: the MIC stood at 11.4 µg/mL and the “MIC (ug/mL) (+) Fluc” value turned out to be 8.09 µg/mL.
On the same counts, the results for `CC(c1ccc(CC2CCN(S(=O)(=O)c3cccc(F)c3)CC2)cc1)N1CCOCC1` (centres unmarked) [MBX-8358] are 2.79 µg/mL and 0.44 µg/mL.
Consider `O=C(Nc1ccsc1)N1CCC(Cc2ccc(COc3ccncc3)cc2)CC1` [MBX-7805], for which the MIC is > 16 µg/mL and the “MIC (ug/mL) (+) Fluc” value is >16 µg/mL.
Consider `O=C(c1ccsc1)N1CCC(Cc2ccc(COc3cnc4scnc4c3)cc2)CC1` [MBX-8219], for which the MIC is 2.81 µg/mL and the “MIC (ug/mL) (+) Fluc” value was found to be 2.81 µg/mL.
`O=C(c1cccc(O)c1)N1CCC(Cc2ccc(COc3ccncc3)cc2)CC1` [MBX-7801]: the MIC was > 16 µg/mL and the “MIC (ug/mL) (+) Fluc” value was >16 µg/mL.
For the compound `COc1c(F)cccc1S(=O)(=O)N1CCC2(CC1)CC(CCOc1ccncc1)CCO2` (centres unmarked) [MBX-7958], the MIC was > 92 µg/mL and the “MIC (ug/mL) (+) Fluc” value was >92 µg/mL.
For the compound `COc1cccc(C(=O)N2CCC(Cc3ccc(COc4ccncc4)cc3)CC2)c1` [MBX-7771], the MIC is 11.8 µg/mL and the “MIC (ug/mL) (+) Fluc” value came out at 16.70 µg/mL.
Turning to `O=S(=O)(c1ccc(C(F)(F)F)cc1)N1CCC(Cc2ccc(CN3CCOCC3)cc2)CC1` [MBX-8224], the MIC is 1.1 µg/mL and the “MIC (ug/mL) (+) Fluc” value came out at 0.50 µg/mL.
Consider `N#Cc1ccc(OCc2ccc(CC3CCN(C(=O)c4ccsc4)CC3)cc2)cc1` [MBX-8027], for which the MIC is > 83 µg/mL and the “MIC (ug/mL) (+) Fluc” value is >83 µg/mL.
With `O=S(=O)(c1cccs1)N1CCC2(CC1)C[C@@H](CCOc1ccncc1)CCO2` [MBX-8251], the MIC turned out to be 5.28 µg/mL and the “MIC (ug/mL) (+) Fluc” value came to 1.32 µg/mL.
In the case of `O=S(=O)(c1cccc(Cl)c1)N1CCC2(CC1)CC(CCOc1ccncc1)CCO2` (centres unmarked) [MBX-7872], the MIC was > 18 µg/mL and the “MIC (ug/mL) (+) Fluc” value is 6.38 µg/mL.
As for `O=S(=O)(c1cscn1)N1CCC2(CC1)CC(CCOc1ccncc1)CCO2` (centres unmarked) [MBX-7960], the MIC was 42 µg/mL and the “MIC (ug/mL) (+) Fluc” value was determined as 10.60 µg/mL.
Turning to `CC(C)(O)c1ccc(C(=O)N2CCC(Cc3ccc(COc4ccncc4)cc3)CC2)cc1` [MBX-8139], the MIC is > 22 µg/mL and the “MIC (ug/mL) (+) Fluc” value is >22 µg/mL.
With `Cc1cc(CN2CCOCC2)ccc1CC1CCN(S(=O)(=O)c2ccc(F)cc2)CC1` [MBX-8346], the MIC was 1.1 µg/mL and the “MIC (ug/mL) (+) Fluc” value is 0.15 µg/mL.
For `CN(C)Cc1ccc(CC2CCN(S(=O)(=O)c3ccc(F)cc3)CC2)cc1` [MBX-8439], the MIC came out at 9.76 µg/mL and the “MIC (ug/mL) (+) Fluc” value worked out at 0.78 µg/mL.
For the compound `O=S(=O)(c1cccc(F)c1)N1CCC(Cc2ccc(N3CCOCC3)cc2)CC1` [MBX-8222], the MIC was > 21 µg/mL and the “MIC (ug/mL) (+) Fluc” value was >21 µg/mL.
As to `O=C(c1ccsc1)N1CCC(Cc2ccc(OCc3ccncc3)cc2)CC1` [MBX-8024], the MIC stood at 19.6 µg/mL, the “potency / potentiation” value is “not optimal for potentiation of fluconazole” and the “MIC (ug/mL) (+) Fluc” value is 19.60 µg/mL.
